IC50 data for 34 compounds are collected here from PubChem BioAssay AID651974 (The Scripps Research Institute Molecular Screening Center, 2013).

Active and inactive are the calls of the source. No rule for the calls is given here.

This experiment is described as follows: GAL4-VP16 transactivation reporter inhibitors, late-stage follow-up, counter-screen for LRH-1 inverse agonist project, cell-based, luminescence, dose response (AID 651974). As to conditions: HEK293 cells transfected with Gal4-VP16 and pGL4.31 luciferase reporter. For orientation: The purpose of a counterscreen is to sort out artefacts and off-target activity.
In the case of `O=C(COc1ccc2c3c(c(=O)oc2c1)CCCC3)NCc1ccccn1`, the IC50 was > 35.9 µM (inactive).

Regarding `CCc1c(C)nc(SCC(=O)Nc2ccc3c(c2)OCCO3)[nH]c1=O`, the IC50 is > 35.9 µM (inactive). The same measure for `N#CCSc1ccccc1NC(=O)CN1C(=O)C2CC=CCC2C1=O` (centres undefined): > 35.9 µM (inactive).

`COc1ccc(CC(NC(C)=O)C(=O)NC2CCN(c3nnnn3-c3ccccc3)CC2)cc1` (centres undefined): the IC50 is > 35.9 µM (inactive). The same measure for `COC(=O)c1ccc(NC(=O)CSc2nncn2-c2cccnc2)cc1`: > 35.9 µM (inactive); for `CC(=O)Nc1ncc(Cc2cc(Cl)ccc2Cl)s1`: > 35.9 µM (inactive); for `Cc1sc(NC(=O)C(C)C)c(C(=O)Nc2ccccc2)c1C`: > 35.9 µM (inactive). In the case of `Cc1nn(CC(=O)Nc2ccc3c(c2)OCCO3)c(C)c1[N+](=O)[O-]` it was > 35.9 µM (inactive); in that of `O=C(CN1C(=O)CCC1=O)Nc1ccc(Br)cc1`, > 35.9 µM (inactive).

With `O=C(OCC(=O)N1CCN(C(=O)COC(=O)c2ccc(O)cc2O)CC1)c1ccc(O)cc1O`, the IC50 is > 35.9 µM (inactive). The same measure for `COc1ccc(CCNC(=O)COC(=O)c2cccn2C)cc1`: > 35.9 µM (inactive); for `COc1ccc(NC(=O)COC(=O)c2c(-c3ccccc3)noc2C)cc1`: > 35.9 µM (inactive). The same measure for `COC(=O)c1ccc(NC(=O)CSc2nn3c(=O)c(C)nnc3s2)cc1`: > 35.9 µM (inactive). The same measure for `CC(=O)c1ccc(NC(=O)C(C)O/N=C(\N)c2ccccc2)cc1` (centres undefined): > 35.9 µM (inactive); for `CCOc1ccc(NC(=O)CSc2nc3[nH]ncc3c(=O)[nH]2)cc1`: > 35.9 µM (inactive). For `Cc1cccc(NC(=O)COC(=O)Cc2cccs2)c1C`, the IC50 is > 35.9 µM (inactive). In the case of `CCCc1cc(=O)oc2cc(C)cc(OCC(=O)NC3CC3)c12` it was > 35.9 µM (inactive); in that of `O=C(COC(=O)CCN1C(=O)C2CC=CCC2C1=O)NCCc1ccc(F)cc1` (centres undefined), > 35.9 µM (inactive); in that of `COC(=O)c1ccc(CNC(=O)COC(=O)c2cc(Cl)nc(Cl)c2)cc1`, > 35.9 µM (inactive). In the case of `O=C(NCc1ccco1)c1nn(-c2ccccc2)c(=O)c2ccccc12` it was > 35.9 µM (inactive). In the case of `CC1SC(C)C(=O)N(CC(=O)Nc2ccc3c(c2)OCO3)C1=O` (centres undefined) it was > 35.9 µM (inactive); in that of `CCCc1cc(=O)oc2cc(OCC(=O)NCCc3ccc(S(N)(=O)=O)cc3)ccc12`, > 35.9 µM (inactive); in that of `CCOc1ccc(NC(=O)CN2CCN(CC(=O)Nc3ccc(OC)cc3)CC2)cc1`, > 35.9 µM (inactive).

Turning to `O=C(Nc1ccc(S(=O)(=O)N2CCOCC2)cc1)c1cccc([N+](=O)[O-])c1`, the IC50 is > 35.9 µM (inactive).

With `CCOc1ccc(NC(=O)COC(=O)COc2cccc3c2OC(C)(C)C3)cc1`, the IC50 is > 35.9 µM (inactive).

Regarding `Cc1ccc(NC(=O)COC(=O)c2cc(=O)c3ccccc3o2)c(Br)c1`, the IC50 was > 35.9 µM (inactive).

`CCCc1cc(=O)oc2cc(OCC(=O)NCc3ccccn3)ccc12`: the IC50 is > 35.9 µM (inactive). Consider `COc1ccc(C2(C)NC(=O)N(CC(=O)NCCC3=CCCCC3)C2=O)cc1OC` (centres undefined), for which the IC50 is > 35.9 µM (inactive). Regarding `O=C(Nc1ccccc1)c1oc2ccccc2c1NC(=O)C1CC1`, the IC50 is > 35.9 µM (inactive). The same measure for `COc1ccc(NC(=O)CSc2nnc3ccc(-c4cccnc4)nn23)cc1OC`: > 35.9 µM (inactive); for `COC(=O)c1ccc(NC(=O)COc2cccc(-n3cnnn3)c2)cc1`: > 35.9 µM (inactive).

With `O=C(CSc1nnc(CNC(=O)c2c(F)cccc2F)o1)Nc1ccc2c(c1)OCCO2`, the IC50 was > 35.9 µM (inactive).

For `CCc1cc(=O)[nH]c(SCC(=O)Nc2ccc3c(c2)OCCO3)n1`, the IC50 was > 35.9 µM (inactive). In the case of `COCCn1c(C)cc(/C=C(\C#N)C(=O)OCC(=O)Nc2ccc(S(N)(=O)=O)cc2)c1C`, the IC50 is > 35.9 µM (inactive).

What is called IC50 is the concentration needed to halve the response being measured.
